Read-outs that look alike come from different tables or passages of the source.
Test system: HCV 1b genotype
Assay: HCV Replicon assay, 1b genotype
Format: cell-based
Settings: Hepatitis C virus, HCV 1b genotype replicon
Protocol: An HCV Replicon assay was utilized in the present disclosure, and was prepared, conducted and validated as described in commonly owned PCT/US2006/022197 and in O'Boyle et. al. Antimicrob Agents Chemother. 2005 April; 49(4):1346-53. Assay methods incorporating luciferase reporters have also been used as described (Apath.com).
HCV-neo replicon cells and replicon cells containing mutations in the NS5A region were used to test the currently described family of compounds. The compounds were determined to have more than 10-fold less inhibitory activity on cells containing mutations than wild-type cells. Thus, the compounds of the present disclosure can be effective in inhibiting the function of the HCV NS5A protein and are understood to be as effective in combinations as previously described in application PCT/US2006/022197 and commonly owned WO/04014852. Further, the compounds of the present disclosure can be effective against the HCV 1b genotype. It should also be understood that the compounds of the present disclosure can inhibit multiple genotypes of HCV. […] In one embodiment, compounds of the present disclosure are active against the 1a, 1b, 2a, 2b, 3a, 4a, and 5a genotypes. EC50 values against HCV 1b are as follows: A=5 pM to 5 nM.

[1] = read-out: Range (EC50 values against HCV 1b)
[2] = read-out: 1b EC50 (Effective 50% inhibitory concentration)

**Q.** With `O=C(N[C@@H](C(=O)N1CCC[C@H]1c1nc(-c2ccc(-c3ccc(-c4c[nH]c([C@@H]5CCCN5C(=O)[C@H](NC(=O)OC5CCC5)c5ccccc5)n4)cc3)cc2)c[nH]1)c1ccccc1)OC1CCC1` [Example CQ-1, Cyclobutyl ((1R)-2-((2S)-2-(4-(4′-(2-((2S)-1-((2R)-2-(((cyclobutyloxy)carbonyl)amino)-2-phenylacetyl)-2-pyrrolidinyl)-1H-imidazol-5-yl)-4-biphenylyl)-1H-imidazol-2-yl)-1-pyrrolidinyl)-2-oxo-1-phenylethyl)carbamate] as the compound, how does the EC50 [1] read?
**A.** 5 to 5000 pM

**Q.** For `O=C(N[C@@H](C(=O)N1CCC[C@H]1c1nc(-c2ccc(-c3ccc(-c4c[nH]c([C@@H]5CCCN5C(=O)[C@H](NC(=O)OC5CCCC5)c5ccccc5)n4)cc3)cc2)c[nH]1)c1ccccc1)OC1CCCC1` [Example CQ-2, Cyclopentyl ((1R)-2-((2S)-2-(4-(4′-(2-((2S)-1-((2R)-2-(((cyclopentyloxy)carbonyl)amino)-2-phenylacetyl)-2-pyrrolidinyl)-1H-imidazol-5-yl)-4-biphenylyl)-1H-imidazol-2-yl)-1-pyrrolidinyl)-2-oxo-1-phenylethyl)carbamate], which EC50 [2] is on record?
**A.** 12 pM

**Q.** And the EC50 [1]?
**A.** 5 to 5000 pM

**Q.** `O=C(N[C@@H](C(=O)N1CCC[C@H]1c1nc(-c2ccc(-c3ccc(-c4cnc([C@@H]5CCCN5C(=O)[C@H](NC(=O)OC5CC5)c5ccccc5)[nH]4)cc3)cc2)c[nH]1)c1ccccc1)OC1CC1` [Example CQ-3, Cyclopropyl ((1R)-2-((2S)-2-(4-(4′-(2-((2S)-1-((2R)-2-(((cyclopropyloxy)carbonyl)amino)-2-phenylacetyl)-2-pyrrolidinyl)-1H-imidazol-5-yl)-4-biphenylyl)-1H-imidazol-2-yl)-1-pyrrolidinyl)-2-oxo-1-phenylethyl)carbamate] was tested. Which EC50 [1] did it give?
**A.** 5 to 5000 pM

**Q.** With `O=C(N[C@@H](C(=O)N1CCC[C@H]1c1nc(-c2ccc(-c3ccc(-c4cnc([C@@H]5CCCN5C(=O)[C@H](NC(=O)OC5CCCCC5)c5ccccc5)[nH]4)cc3)cc2)c[nH]1)c1ccccc1)OC1CCCCC1` [Example CQ-4, Cyclohexyl ((1R)-2-((2S)-2-(4-(4′-(2-((2S)-1-((2R)-2-(((cyclohexyloxy)carbonyl)amino)-2-phenylacetyl)-2-pyrrolidinyl)-1H-imidazol-5-yl)-4-biphenylyl)-1H-imidazol-2-yl)-1-pyrrolidinyl)-2-oxo-1-phenylethyl)carbamate] as the compound, how does the EC50 [1] read?
**A.** 5 to 5000 pM

**Q.** For `O=C(N[C@@H](C(=O)N1[C@@H]2C[C@@H]2C[C@H]1c1nc(-c2ccc(-c3ccc(-c4c[nH]c([C@@H]5C[C@H]6C[C@H]6N5C(=O)[C@H](NC(=O)OC5CCC5)c5ccccc5)n4)cc3)cc2)c[nH]1)c1ccccc1)OC1CCC1` [Example CQ-5, Cyclobutyl ((1R)-2-((1R,3S,5R)-3-(4-(4′-(2-((1R,3S,5R)-2-((2R)-2-(((cyclobutyloxy)carbonyl)amino)-2-phenylacetyl)-2-azabicyclo[3.1.0]hex-3-yl)-1H-imidazol-5-yl)-4-biphenylyl)-1H-imidazol-2-yl)-2-azabicyclo[3.1.0]hex-2-yl)-2-oxo-1-phenylethyl)carbamate], which EC50 [1] is on record?
**A.** 5 to 5000 pM

**Q.** For `O=C(N[C@@H](C(=O)N1[C@@H]2C[C@@H]2C[C@H]1c1nc(-c2ccc(-c3ccc(-c4c[nH]c([C@@H]5C[C@H]6C[C@H]6N5C(=O)[C@H](NC(=O)OC5CCCC5)c5ccccc5)n4)cc3)cc2)c[nH]1)c1ccccc1)OC1CCCC1` [Example CQ-6, Cyclopentyl ((1R)-2-((1R,3S,5R)-3-(4-(4′-(2-((1R,3S,5R)-2-((2R)-2-(((cyclopentyloxy)carbonyl)amino)-2-phenylacetyl)-2-azabicyclo[3.1.0]hex-3-yl)-1H-imidazol-5-yl)-4-biphenylyl)-1H-imidazol-2-yl)-2-azabicyclo[3.1.0]hex-2-yl)-2-oxo-1-phenylethyl)carbamate], which EC50 [1] is on record?
**A.** 5 to 5000 pM

**Q.** With `O=C(N[C@@H](C(=O)N1[C@@H]2C[C@@H]2C[C@H]1c1nc(-c2ccc(-c3ccc(-c4cnc([C@@H]5C[C@H]6C[C@H]6N5C(=O)[C@H](NC(=O)OC5CC5)c5ccccc5)[nH]4)cc3)cc2)c[nH]1)c1ccccc1)OC1CC1` [Example CQ-7, Cyclopropyl ((1R)-2-((1R,3S,5R)-3-(4-(4′-(2-((1R,3S,5R)-2-((2R)-2-(((cyclopropyloxy)carbonyl)amino)-2-phenylacetyl)-2-azabicyclo[3.1.0]hex-3-yl)-1H-imidazol-5-yl)-4-biphenylyl)-1H-imidazol-2-yl)-2-azabicyclo[3.1.0]hex-2-yl)-2-oxo-1-phenylethyl)carbamate] as the compound, how does the EC50 [2] read?
**A.** 6.1 pM

**Q.** What about the EC50 [1] of the same compound?
**A.** 5 to 5000 pM

**Q.** `O=C(N[C@@H](C(=O)N1[C@@H]2C[C@@H]2C[C@H]1c1nc(-c2ccc(-c3ccc(-c4cnc([C@@H]5C[C@H]6C[C@H]6N5C(=O)[C@H](NC(=O)OC5CCCCC5)c5ccccc5)[nH]4)cc3)cc2)c[nH]1)c1ccccc1)OC1CCCCC1` [Example CQ-8, Cyclohexyl ((1R)-2-((1R,3S,5R)-3-(4-(4′-(2-((1R,3S,5R)-2-((2R)-2-(((cyclohexyloxy)carbonyl)amino)-2-phenylacetyl)-2-azabicyclo[3.1.0]hex-3-yl)-1H-imidazol-5-yl)-4-biphenylyl)-1H-imidazol-2-yl)-2-azabicyclo[3.1.0]hex-2-yl)-2-oxo-1-phenylethyl)carbamate] was tested. Which EC50 [1] did it give?
**A.** 5 to 5000 pM
